{"source": "patent US11840527B2", "about": "“Non-fused thiophene derivatives and their uses” (ENYO PHARMA, priority 2018, dated 2023)", "note": "Counter-ions that a name gives are not always drawn."}
{"tested_on": "H1N1 (influenza A/New Caledonia/20/99)", "experiment": "Antiviral effect on A549 cells infected with H1N1", "format": "cell-based, H1N1 A/New Caledonia/20/99 virus", "conditions": "Influenza A virus, MOI 0.1, 48 h post-infection, MUNANA neuraminidase readout", "experimental": "The antiviral effect of the compounds of the invention have been tested on A549 cell lines infected with H1N1 (influenza A/New Caledonia/20/99).\nHuman A549 cells (80,000 cells/well in a 96 well plate) were treated with a range of concentration of test compounds and immediately infected by H1N1 A/New Caledonia/20/99 virus (clinical isolate) at MOI of 0.1 in DMEM/1% Penicillin/streptomycin supplemented with […] TPCK trypsin (Sigma) and incubated at 37° C. in 5% CO2. 48 h post-infection, supernatants (25 μl) were collected and transferred into a 96-well black flat-bottom plate, mixed with 25 μl PBS with Ca++/Mg++ (Thermo Fisher) and 50 μl of 2′-(4-Methylumbelliferyl)-ax-D-N-acetylneuraminic acid sodium salt hydrate stock-solution (20 μM, MUNANA, Sigma). Plates were incubated 1h at 37° C. and reaction is stopped by adding 100 μl of Stop Solution (glycine 0.1 M pH10.7/25% ethanol). The amount of fluorescent product released by MUNANA hydrolysis (4-MU) was measured in a Tecan spectrophotometer with excitation and emission wavelengths of 365 and 450 nm respectively.", "units": {"IC50": "nM"}}
{"compound": "CN(CC1CCOCC1)c1ccc(C(=O)Nc2scc(C(C)(C)C)c2C(=O)O)cc1", "note": "[Compound #120, 4-tert-Butyl-2-[[4-[methyl(tetrahydropyran-4-ylmethyl)amino]benzoyl]amino]thiophene-3-carboxylic acid]", "IC50": 100}
{"compound": "COCCNc1ccc(C(=O)Nc2scc(C3(C)CC3)c2C(=O)O)cc1", "note": "[Compound #108, 2-[[4-(2-Methoxyethylamino)benzoyl]amino]-4-(1-methylcyclopropyl)thiophene-3-carboxylic acid]", "IC50": 560}
{"compound": "Cc1ccccc1C(=O)Nc1sc(Cl)c(C2CCCCC2)c1C(=O)O", "note": "[Compound #14, 5-Chloro-4-cyclohexyl-2-[(2-methylbenzoyl)amino]thiophene-3-carboxylic acid]", "IC50": 500}
{"compound": "COC1CN(c2ccc(C(=O)Nc3scc(C4CCC4)c3C(=O)O)cc2)C1", "note": "[Compound #97, 4-Cyclobutyl-2-[[4-(3-methoxyazetidin-1-yl)benzoyl]amino]thiophene-3-carboxylic acid]", "IC50": 110}
{"compound": "COc1ccc(-c2csc(NC(=O)c3ccccc3)c2C(=O)O)cc1", "note": "[Compound #38, 2-Benzamido-4-(4-methoxyphenyl)thiophene-3-carboxylic acid]", "IC50": 1870}
{"compound": "O=C(Nc1sc(Cl)c(-c2ccccc2)c1C(=O)O)c1ccc(OC(F)F)cc1", "note": "[Compound #31, 5-Chloro-2-[[4-(difluoromethoxy)benzoyl]amino]-4-phenyl-thiophene-3-carboxylic acid]", "IC50": 1370}
{"compound": "Cc1sc(NC(=O)c2ccc(OC(F)F)cc2)c(C(=O)O)c1-c1ccccc1", "note": "[Compound #30, 2-[[4-(Difluoromethoxy)benzoyl]amino]-5-methyl-4-phenyl-thiophene-3-carboxylic acid]", "IC50": 1370}
{"compound": "O=C(Nc1sc(C2CCCCC2)cc1C(=O)O)c1ccc(OC(F)F)cc1", "note": "[Compound #41, 5-Cyclohexyl-2-[[4-(difluoromethoxy)benzoyl]amino]thiophene-3-carboxylic acid]", "IC50": 2570}
{"compound": "Cc1ccc(-c2csc(NC(=O)c3ccccc3)c2C(=O)O)cc1", "note": "[Compound #21, 2-Benzamido-4-(p-tolyl)thiophene-3-carboxylic acid]", "IC50": 610}
{"compound": "CC(C)(C)[C@H]1CC[C@@H](c2csc(NC(=O)c3ccccc3)c2C(=O)O)CC1", "note": "[Compound #54, 2-Benzamido-4-(cis-4-tert-butylcyclohexyl)thiophene-3-carboxylic acid]", "IC50": 460}
{"compound": "O=C(Nc1scc(-c2cccc(Cl)c2)c1C(=O)O)c1ccccc1", "note": "[Compound #36, 2-Benzamido-4-(3-chlorophenyl)thiophene-3-carboxylic acid]", "IC50": 1670}
{"compound": "O=C(Nc1sc(Cl)c(-c2ccc(Cl)c(F)c2)c1C(=O)O)c1ccccc1", "note": "[Compound #6, 2-Benzamido-5-chloro-4-(4-chloro-3-fluoro-phenyl)thiophene-3-carboxylic acid]", "IC50": 247}
{"compound": "COCCN(C)c1ccc(C(=O)Nc2scc(C(C)(C)C)c2C(=O)O)cc1", "note": "[Compound #117, 4-tert-Butyl-2-[[4-[2-methoxyethyl(methyl)amino]benzoyl]amino]thiophene-3-carboxylic acid]", "IC50": 76}
{"compound": "CC(C)(C)[C@H]1CC[C@H](c2csc(NC(=O)c3ccccc3)c2C(=O)O)CC1", "note": "[Compound #48, 2-Benzamido-4-(trans-4-tert-butylcyclohexyl)thiophene-3-carboxylic acid]", "IC50": 350}
{"compound": "O=C(Nc1scc(C2CC(c3ccccc3)C2)c1C(=O)O)c1ccccc1", "note": "(stereo not shown) [Compound #63, 2-Benzamido-4-(3-phenylcyclobutyl)thiophene-3-carboxylic acid]", "IC50": 150}
{"compound": "Cc1sc(NC(=O)c2ccccc2)c(C(=O)O)c1-c1ccccc1", "note": "[Compound #34, 2-Benzamido-5-methyl-4-phenyl-thiophene-3-carboxylic acid]", "IC50": 1480}
{"compound": "Cc1ccc(-c2c(Cl)sc(NC(=O)c3ccccc3)c2C(=O)O)cc1", "note": "[Compound #24, 2-Benzamido-5-chloro-4-(p-tolyl)thiophene-3-carboxylic acid]", "IC50": 350}
{"compound": "CC(C)(C)c1csc(NC(=O)c2ccc(NC3CCOCC3)cc2)c1C(=O)O", "note": "[Compound #105, 4-tert-Butyl-2-[[4-(tetrahydropyran-4-ylamino)benzoyl]amino]thiophene-3-carboxylic acid]", "IC50": 680}
{"compound": "COC1CN(c2ccc(C(=O)Nc3scc(C4CC(F)(F)C4)c3C(=O)O)cc2)C1", "note": "[Compound #107, 4-(3,3-Difluorocyclobutyl)-2-[[4-(3-methoxyazetidin-1-yl)benzoyl]amino]thiophene-3-carboxylic acid]", "IC50": 460}
{"compound": "O=C(Nc1scc(C2CCc3ccccc3O2)c1C(=O)O)c1ccccc1", "note": "(stereo not shown) [Compound #85, 2-Benzamido-4-chroman-2-yl-thiophene-3-carboxylic acid]", "IC50": 506}
{"compound": "COCCNc1ccc(C(=O)Nc2scc(C(C)(C)C)c2C(=O)O)cc1", "note": "[Compound #103, 4-tert-Butyl-2-[[4-(2-methoxyethylamino)benzoyl]amino]thiophene-3-carboxylic acid]", "IC50": 460}
{"compound": "O=C(Nc1scc(C2CCC2)c1C(=O)O)c1ccc(NCC2CCOCC2)cc1", "note": "[Compound #99, 4-Cyclobutyl-2-[[4-(tetrahydropyran-4-ylmethylamino)benzoyl]amino]thiophene-3-carboxylic acid]", "IC50": 14}
{"compound": "O=C(Nc1scc(-c2ccccc2)c1C(=O)O)c1ccc(OC(F)F)cc1", "note": "[Compound #28, 2-[[4-(Difluoromethoxy)benzoyl]amino]-4-phenyl-thiophene-3-carboxylic acid]", "IC50": 1270}
{"compound": "COCCOc1ccc(C(=O)Nc2scc(C3COc4ccccc4C3)c2C(=O)O)cc1", "note": "(stereo not shown) [Compound #95, 4-Chroman-3-yl-2-[[4-(2-methoxyethoxy)benzoyl]amino]thiophene-3-carboxylic acid]", "IC50": 610}
{"compound": "O=C(Nc1scc(C2CC2)c1C(=O)O)c1ccccc1", "note": "[Compound #87, 2-Benzamido-4-cyclopropyl-thiophene-3-carboxylic acid]", "IC50": 810}
{"compound": "O=C(Nc1sc(Cl)c(-c2ccccc2)c1C(=O)O)c1ccccc1", "note": "[Compound #33, 2-Benzamido-5-chloro-4-phenyl-thiophene-3-carboxylic acid]", "IC50": 1470}
{"compound": "CC(C)(C)c1csc(NC(=O)c2ccc(NCC3CCOCC3)cc2)c1C(=O)O", "note": "[Compound #91, 4-Tert-butyl-2-[[4-(tetrahydropyran-4-ylmethylamino)benzoyl]amino]thiophene-3-carboxylic acid]", "IC50": 120}
{"compound": "O=C(Nc1sc(Cl)c(C2CCCCC2)c1C(=O)O)c1ccccc1", "note": "[Compound #12, 2-Benzamido-5-chloro-4-cyclohexyl-thiophene-3-carboxylic acid]", "IC50": 245}
{"compound": "COC1CN(c2ccc(C(=O)Nc3sc(C(C)C)c(C)c3C(=O)O)cc2)C1", "note": "[Compound #114, 5-Isopropyl-2-[[4-(3-methoxyazetidin-1-yl)benzoyl]amino]-4-methyl-thiophene-3-carboxylic acid diethylamine salt]", "IC50": 510}
{"compound": "O=C(Nc1scc(C2CCCC2)c1C(=O)O)c1ccc(NC2CCOCC2)cc1", "note": "[Compound #60, 4-Cyclopentyl-2-[[4-(tetrahydropyran-4-ylamino)benzoyl]amino]thiophene-3-carboxylic acid]", "IC50": 47}
{"compound": "COC1CN(c2ccc(C(=O)Nc3scc(C(C)(C)C)c3C(=O)O)c(F)c2)C1", "note": "[Compound #121, 4-tert-Butyl-2-[[2-fluoro-4-(3-methoxyazetidin-1-yl)benzoyl]amino]thiophene-3-carboxylicacid]", "IC50": 510}
